Test results from PubChem BioAssay (NCI).
Several values for one entry are separate records, joined by “and”; a condition that tells them apart may be missing. Equal values may be shown once.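 Cultured in 96-well plates, cells were exposed to test compound for 48 hours across five concentrations. At the GI50, growth is halved. At the TGI there is no net growth.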

Legend:
Test in all cases: NCI tumour cell line growth inhibition, 48 h
U251 CNS = test system: U251 CNS
COLO 205 colon = test system: COLO 205 colon
SN12C renal = test system: SN12C renal
OVCAR-8 ovarian = test system: OVCAR-8 ovarian
NCI-H23 lung = test system: NCI-H23 lung
K-562 leukemia = test system: K-562 leukemia
SNB-19 CNS = test system: SNB-19 CNS
SK-MEL-5 melanoma = test system: SK-MEL-5 melanoma
IGROV1 ovarian = test system: IGROV1 ovarian
786-0 renal = test system: 786-0 renal

Structure (SMILES)	GI50 (U251 CNS)	TGI (U251 CNS)	GI50 (COLO 205 colon)	TGI (COLO 205 colon)	GI50 (SN12C renal)	TGI (SN12C renal)	GI50 (OVCAR-8 ovarian)	TGI (OVCAR-8 ovarian)	GI50 (NCI-H23 lung)	TGI (NCI-H23 lung)	GI50 (K-562 leukemia)	TGI (K-562 leukemia)	GI50 (SNB-19 CNS)	TGI (SNB-19 CNS)	GI50 (SK-MEL-5 melanoma)	TGI (SK-MEL-5 melanoma)	GI50 (IGROV1 ovarian)	TGI (IGROV1 ovarian)	GI50 (786-0 renal)	TGI (786-0 renal)
CCc1ccc([OH2+])c(C(=O)[O-])c1.CCc1ccc([OH2+])c(C(=O)[O-])c1.CCc1ccc([OH2+])c(C(=O)[O-])c1.CCc1ccc([OH2+])c(C(=O)[O-])c1.[Cu+2].[Cu+2]	> 59.9 µM	> 100 µM	> 100 µM	> 100 µM	98.3 µM	> 100 µM	5.59 µM	> 100 µM	> 100 µM	> 100 µM	38.1 µM	> 73.9 µM	36.8 µM	> 61.8 µM	17.6 µM	42.9 µM	> 69.6 µM	> 100 µM	> 100 µM	> 100 µM
COc1cc(C(=O)/C=C/c2c[nH]c3ccccc23)cc(OC)c1OC	< 0.0195 µM	16.1 µM	0.0192 µM	0.132 µM	0.0631 µM	18.9 µM	0.037 µM	15.6 µM	0.0602 µM	45.4 µM	< 0.01 µM	12.5 µM	0.0342 µM	> 57.3 µM	< 0.0173 µM	0.775 µM	0.0713 µM	25.3 µM	< 0.0223 µM	> 33.9 µM
NS(=O)(=O)c1cccc(Nc2cc(-c3ccc(F)cc3)[nH]n2)c1	16.5 µM	> 25 µM	> 25 µM	> 25 µM	> 20.7 µM	> 25 µM	19.4 µM	> 25 µM	> 25 µM	> 25 µM	> 25 µM	> 25 µM	> 25 µM	> 25 µM	24.5 µM	> 25 µM	19.3 µM	> 25 µM	23.2 µM	> 25 µM
COc1cc2c(cc1O)CCN[C@@]21CS[C@H]2c3c(OC(C)=O)c(C)c4c(c3C(COC1=O)N1C2C2NC(Cc3cc(C)c(OC)c(O)c32)[C@@H]1O)OCO4 (stereo partly specified)	4.5 ng/mL	< 10 nM and 0.28 µg/mL	4.5 ng/mL	< 10 nM and 1.9e-07 µg/mL and 0.0045 µg/mL	4.5 ng/mL	4.8 ng/mL	4.5 ng/mL	< 10 nM and 0.472 µg/mL	4.5 ng/mL	298 nM and 1.3e-07 µg/mL and 0.0045 µg/mL	4.5 ng/mL	11.3 µM and 0.0045 µg/mL		11.4 µM		< 10 nM and 2.8e-07 µg/mL and 0.0045 µg/mL	0.000551 ng/mL and 4.5 ng/mL	10.5 µM and 0.000362 µg/mL and 0.0045 µg/mL	4.5 ng/mL	30.8 nM and 0.0045 µg/mL
O=C(NOCCO)c1ccc2cncn2c1Nc1ccc(I)cc1F	0.722 µM	> 90.1 µM	0.00235 µM and < 0.01 µM	0.803 µM	> 10 µM and 19.8 µM	> 100 µM	> 10 µM and 19.4 µM	> 100 µM	0.0189 µM and 0.0195 µM	> 10 µM and 45.2 µM	0.359 µM and 0.219 µM	> 100 µM	> 10 µM and 1.99 µM	> 100 µM	3.94 µM	> 100 µM	0.013 µM and 0.0532 µM	> 100 µM	> 10 µM and 27.1 µM	> 100 µM
OC[C@H]1C[C@](O)(c2ccccc2Cl)[C@@H](c2ccccc2Cl)O1	28.5 µM	> 100 µM	14.7 µM	34.6 µM	20.8 µM	41.2 µM	26.4 µM	86.6 µM	25.9 µM	74.2 µM	20 µM	56.9 µM	31.7 µM	> 100 µM	17.1 µM	31.6 µM	10.8 µM	30.5 µM	26.1 µM	68.5 µM
CC/C(=C/c1ccc(OC)cc1)[N+](=O)[O-]	3.18 µM	10.5 µM	1.89 µM	3.75 µM	2.28 µM	5.44 µM	2.23 µM	4.98 µM	2.15 µM	5.74 µM	1.95 µM	> 100 µM	2.77 µM	7.93 µM	1.87 µM	3.56 µM	2.82 µM	8.16 µM	1.7 µM	3.14 µM
COc1ccc2c(Cl)cc(NC(=S)Nc3ccccc3)nc2c1		36.4 µM		> 100 µM		> 100 µM		38.4 µM		73.7 µM		60.2 µM		46.5 µM		> 100 µM		54.3 µM		62.7 µM
N/N=C1/C(=O)N(c2ccc(Cl)cc2)C(=O)C(=O)C1c1nc2ccccc2s1 (stereo unspecified)		> 100 µM		> 100 µM		> 100 µM		> 100 µM		> 100 µM		> 100 µM		> 100 µM		> 100 µM		> 100 µM		> 100 µM
Cc1ccc(C)c(N2CCN(c3ccncc3N)CC2)c1	4.78 µM	97.4 µM	13.8 µM	27.1 µM	20.9 µM	> 100 µM	20.2 µM	> 100 µM	12.1 µM	61 µM	8.67 µM	57.1 µM	28.8 µM	> 100 µM	11.7 µM	24.4 µM	23.9 µM	> 100 µM	20.5 µM	58.1 µM
COc1cccc(/C=C\C(=O)c2ccccc2)c1	2.77 µM	14.1 µM	7.82 µM	40.8 µM	8.97 µM	25.5 µM	7.83 µM	24.7 µM	10.4 µM	44.8 µM	6.27 µM	> 100 µM	7.68 µM	24.4 µM	9.4 µM	24.8 µM	3.19 µM	21.2 µM	15 µM	34.2 µM
CC(C)(C)n1cc(-c2ccnc(NCCCNS(=O)(=O)c3cccc4ccccc34)c2)c(-c2cccc(O)c2)n1	1.73 µM	3.87 µM	1.89 µM	3.72 µM	1.73 µM	3.33 µM	2.38 µM	6.28 µM	1.78 µM	3.84 µM	1.48 µM	> 100 µM	2.63 µM	7.21 µM	1.51 µM	2.85 µM	2.14 µM	4.68 µM	2.09 µM	5.12 µM
COc1cc(O)c(C(=O)C2Cc3ccccc32)c(OC)c1 (stereo unspecified)		> 100 µM		> 100 µM		> 100 µM		> 100 µM				> 100 µM		> 100 µM		> 100 µM		> 100 µM		> 100 µM
COc1ccc(/C=C\c2cc(OC)c(OC)c(OC)c2)cc1NC(=O)/C=C/c1cc(OC)c(OC)c(OC)c1	3.82 µM	> 100 µM	4.41 µM	18.5 µM	4.56 µM	> 100 µM	5.14 µM	> 100 µM	6.96 µM	> 100 µM			5.64 µM	> 100 µM	2.21 µM	6.73 µM	9.47 µM	> 100 µM	5.43 µM	> 100 µM
O=C(CC1(O)C(=O)Nc2ccccc21)c1cccc(O)c1 (stereo unspecified)				> 100 µM		> 100 µM		> 100 µM		> 100 µM		> 100 µM		> 100 µM		> 100 µM		> 100 µM		> 100 µM
CC(=O)[CH-]C(=O)c1ccccc1.CC(=O)[CH-]C(=O)c1ccccc1.Cl.[O-]CCc1ccccn1.[O-]CCc1ccccn1.[Ti+4]			29.3 µM	72.2 µM	36.1 µM	> 100 µM	30.1 µM	> 100 µM	24.7 µM	53.8 µM	21 µM	> 100 µM	19.6 µM	49 µM	20 µM	53.6 µM	27.2 µM	75.3 µM	21.2 µM	57 µM
COc1cc2c3c(c4ccc(O)cc4c2cc1OC)[C@@H](O)[C@@H]1CCCN1C3		0.00241 µM		0.145 µM		0.00932 µM		0.48 µM		0.0558 µM				0.00216 µM		0.0206 µM		0.00965 µM		0.0257 µM
O=C1c2ccccc2-c2cn(Cc3ccccc3)c3cccc(c23)C1c1cccnc1 (stereo unspecified)			2.26 µM	9.44 µM	3.08 µM	> 50 µM	9.3 µM	> 50 µM	1.74 µM	> 50 µM	2.09 µM	> 50 µM	14.3 µM	> 50 µM	2.42 µM	17.9 µM	3.41 µM	> 50 µM	5.78 µM	> 50 µM
CC(=O)OC1(C(C)=O)CC2(c3ccccc3)OC1(c1ccccc1)c1ccccc12 (stereo unspecified)		> 100 µM		21.4 µM		> 100 µM		> 100 µM		> 100 µM				> 100 µM		8.53 µM		56.7 µM		> 100 µM
COc1cc2c(c3oc4c(O)cccc4c(=O)c13)CC(C(C)(O)CCl)O2 (stereo unspecified)		12.5 µM		1.85 µM		2.4 µM		7.94 µM		6.14 µM				20.9 µM		1.5 µM		8.28 µM		12.8 µM
COc1cc([C@H]2OC[C@@H]3C(c4cc(OC)c5c(c4)OCO5)OC[C@H]23)cc(OC)c1OC (stereo partly specified)		> 100 µM		> 100 µM				> 100 µM		> 100 µM		> 100 µM		> 100 µM		44.9 µM		> 100 µM		> 100 µM
